Target: T1, ERCC1-XPF (Homo sapiens, UniProt P07992+Q92889)
T1 construct: made in house; host or cells: Sf9 insect cells, baculovirus (obtained from Aziz Sancar)
T1 sequence (Q92889 1-916): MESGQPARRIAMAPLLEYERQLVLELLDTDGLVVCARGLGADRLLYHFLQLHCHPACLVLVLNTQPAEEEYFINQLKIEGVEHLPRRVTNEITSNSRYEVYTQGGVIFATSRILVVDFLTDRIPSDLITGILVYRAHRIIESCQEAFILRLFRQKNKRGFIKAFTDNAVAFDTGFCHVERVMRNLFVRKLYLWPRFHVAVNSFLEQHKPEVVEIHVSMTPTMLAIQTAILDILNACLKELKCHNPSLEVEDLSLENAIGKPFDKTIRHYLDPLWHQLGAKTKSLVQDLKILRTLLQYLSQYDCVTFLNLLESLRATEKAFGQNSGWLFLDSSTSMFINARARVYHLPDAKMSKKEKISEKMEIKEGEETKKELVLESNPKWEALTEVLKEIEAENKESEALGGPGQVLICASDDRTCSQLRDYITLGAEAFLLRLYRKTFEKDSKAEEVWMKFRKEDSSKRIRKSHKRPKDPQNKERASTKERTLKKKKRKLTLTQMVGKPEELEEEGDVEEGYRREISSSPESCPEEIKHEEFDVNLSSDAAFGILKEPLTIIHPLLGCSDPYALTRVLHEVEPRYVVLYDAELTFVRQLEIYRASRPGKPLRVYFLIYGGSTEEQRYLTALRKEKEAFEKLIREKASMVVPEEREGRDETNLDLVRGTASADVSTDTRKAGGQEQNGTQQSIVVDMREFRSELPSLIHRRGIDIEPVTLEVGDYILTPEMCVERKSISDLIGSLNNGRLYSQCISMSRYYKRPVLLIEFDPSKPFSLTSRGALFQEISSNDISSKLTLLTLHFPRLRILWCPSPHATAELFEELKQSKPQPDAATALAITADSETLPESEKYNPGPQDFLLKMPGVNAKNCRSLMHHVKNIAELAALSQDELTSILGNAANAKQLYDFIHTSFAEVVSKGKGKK
T1 sequence (P07992 1-297): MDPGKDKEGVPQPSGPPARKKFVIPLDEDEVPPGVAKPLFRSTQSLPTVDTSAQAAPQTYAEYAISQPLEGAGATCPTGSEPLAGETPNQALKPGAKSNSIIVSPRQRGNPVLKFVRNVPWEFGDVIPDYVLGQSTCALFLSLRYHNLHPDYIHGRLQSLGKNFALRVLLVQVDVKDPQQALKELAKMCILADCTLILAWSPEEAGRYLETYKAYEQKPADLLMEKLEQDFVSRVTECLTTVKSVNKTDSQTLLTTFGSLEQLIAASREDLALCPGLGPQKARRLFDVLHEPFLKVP
Assay: Gel-based in vitro incision assay, ERCC1-XPF
Assay type: biochemical
Settings: purified ERCC1-XPF, 5'-32P DNA substrate, 37°C; read-out: IC50 from the gel-based assay
Experimental: The gel-based in vitro incision assay has been described and extensively used. Here, we titrated Hit 1 (Figure 2A) with ERCC1-XPF or control endonuclease HhaI (Figure 2B) on ice and reactions were initiated by the addition of the 5'-[^32P] radiolabeled DNA substrate at 37°C. The products are visualized via phosphorimager analysis and the ERCC1-XPF or HhaI incised product is illustrated as a faster migrating band in the gel (Figure 2A and 2B).
Hits from the HTS fluorescence screen were validated in a gel based nuclease activity assay as previously described. This assay is robust and highly quantitative. Briefly, the 26- mer DNA substrate (Figure 1) was labeled on the 5'-terminus with [γ^32P]-ATP using T4 polynucleotide kinase (NEB) for 30 minutes at 37°C. The 5'-labeled DNA substrate was annealed to its complementary strand by heating to 95°C for 5 minutes, followed by 65°C and then 37°C for a total of 2 hours. This substrate was gel-purified on a 10% native polyacrylamide gel in TBE (Tris, borate, EDTA electrophoresis buffer), developed, cut and kept for gel elution overnight at 4°C. Post gel elution, the substrate was ethanol precipitated and the counts were determined. The final substrate was stored at −20°C. […]

Oc1cc(O)c2c(c1)OC(c1ccc(O)c(O)c1)C(O)C2c1c(O)cc(O)c2c1OC(c1ccc(O)c(O)c1)C(O)C2 (centres unmarked) [NSC143099]
IC50: ~25 nM

Cc1ccc(S(=O)(=O)Oc2cc(S(=O)(=O)O)cc3cc(S(=O)(=O)O)cc(N)c23)cc1 [NSC16168]
IC50: ~500 nM
